In patent US20250064941A1, “SIGLEC LIGANDS, CONJUGATES, AND METHODS OF USE THEREOF” (Osprey Biopharmaceuticals, Inc., priority 2023, published 2025) one finds Kd data, which are given here for twelve molecules.

Bounds are passed on as bounds.

Experiment [1] has as its target T1, mouse Siglec-2-Fc-Avi (CD22) (Mus musculus, UniProt P35329).
T1 construct: made in house
T1 sequence (P35329 22-708 limits assumed): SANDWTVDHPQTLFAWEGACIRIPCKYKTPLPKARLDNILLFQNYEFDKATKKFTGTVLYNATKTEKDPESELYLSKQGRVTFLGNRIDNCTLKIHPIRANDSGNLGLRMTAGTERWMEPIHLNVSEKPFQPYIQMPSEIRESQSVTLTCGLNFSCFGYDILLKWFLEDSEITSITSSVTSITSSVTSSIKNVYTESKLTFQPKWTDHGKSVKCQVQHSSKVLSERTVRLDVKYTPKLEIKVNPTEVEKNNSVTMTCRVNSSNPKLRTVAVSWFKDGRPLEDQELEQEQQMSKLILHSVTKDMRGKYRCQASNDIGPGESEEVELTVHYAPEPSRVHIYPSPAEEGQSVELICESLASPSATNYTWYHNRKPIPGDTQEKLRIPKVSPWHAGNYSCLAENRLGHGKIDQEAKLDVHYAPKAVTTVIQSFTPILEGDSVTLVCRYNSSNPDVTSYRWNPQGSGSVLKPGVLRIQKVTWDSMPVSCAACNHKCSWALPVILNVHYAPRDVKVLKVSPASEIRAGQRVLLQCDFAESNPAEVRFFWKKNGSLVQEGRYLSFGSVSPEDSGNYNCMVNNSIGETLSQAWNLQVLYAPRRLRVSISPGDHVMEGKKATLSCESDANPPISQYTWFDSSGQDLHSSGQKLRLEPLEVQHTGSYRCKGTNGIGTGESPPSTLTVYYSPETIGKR
Put plainly: SPR binding affinity to mouse CD22. To be noted: steady-state analysis. In outline: (§1)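 Native sialic acid residues are removed from the receptor enzymatically (4 hours at 37° C.) prior to streptavidin capture of the biotinylated protein. Ligand compounds then flow over in HEPES-buffered saline, pH 7.5, containing 0.05% Tween-20 and 1% DMSO, and binding is evaluated at steady state.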
(In general: SPR reads the build-up and loss of mass on a sensor chip optically.)

Experiment [2] concerns the target T2, human Siglec-2/CD22 protein (Homo sapiens, UniProt P20273).
T2 construct: purchased Acro Biosystems SI2-H82E3
T2 sequence (P20273 20-847): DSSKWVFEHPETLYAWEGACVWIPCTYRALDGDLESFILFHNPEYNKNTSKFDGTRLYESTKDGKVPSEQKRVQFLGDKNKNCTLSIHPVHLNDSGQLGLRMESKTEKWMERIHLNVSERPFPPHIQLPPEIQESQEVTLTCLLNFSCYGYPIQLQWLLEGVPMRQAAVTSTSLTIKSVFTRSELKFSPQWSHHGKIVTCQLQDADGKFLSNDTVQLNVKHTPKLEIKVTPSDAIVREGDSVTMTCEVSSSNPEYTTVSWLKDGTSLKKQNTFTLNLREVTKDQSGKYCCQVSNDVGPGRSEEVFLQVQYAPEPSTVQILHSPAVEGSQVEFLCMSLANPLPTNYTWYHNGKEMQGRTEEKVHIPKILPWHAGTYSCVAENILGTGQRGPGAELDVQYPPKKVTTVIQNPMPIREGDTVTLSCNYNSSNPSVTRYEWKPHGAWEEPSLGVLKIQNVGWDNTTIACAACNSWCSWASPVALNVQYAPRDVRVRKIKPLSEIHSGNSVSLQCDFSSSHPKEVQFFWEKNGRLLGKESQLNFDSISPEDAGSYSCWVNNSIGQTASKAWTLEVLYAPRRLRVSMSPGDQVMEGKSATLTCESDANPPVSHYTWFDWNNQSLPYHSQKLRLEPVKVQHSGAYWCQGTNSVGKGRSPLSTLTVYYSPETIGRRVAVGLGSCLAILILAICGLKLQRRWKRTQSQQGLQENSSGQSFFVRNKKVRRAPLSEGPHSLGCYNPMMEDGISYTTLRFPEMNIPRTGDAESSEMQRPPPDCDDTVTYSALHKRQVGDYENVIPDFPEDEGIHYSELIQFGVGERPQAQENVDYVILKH
Put plainly: SPR binding affinity to human CD22. To be noted: steady-state analysis. In outline:
as §1

In a further experiment the target is cynomolgus Siglec-2/CD22 (Macaca fascicularis, UniProt A0A2K5WCZ6). Description: biochemical. To be noted: SPR, steady-state analysis; read-out: Affinity cyno CD22. The experiment is classed as binding. In outline: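 SPR with desialylated (SialoExo, 4 h, 37° C.) cynomolgus CD22 amine-coupled to a CM5 chip. Running buffer 10 mM HEPES, 150 mM NaCl, 0.05% Tween-20, pH 7.5, 1% DMSO, with solvent correction; 120 s dissociation. Affinities from steady-state analysis.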
cynomolgus Siglec-2/CD22, sequence (A0A2K5WCZ6 entry or part of it): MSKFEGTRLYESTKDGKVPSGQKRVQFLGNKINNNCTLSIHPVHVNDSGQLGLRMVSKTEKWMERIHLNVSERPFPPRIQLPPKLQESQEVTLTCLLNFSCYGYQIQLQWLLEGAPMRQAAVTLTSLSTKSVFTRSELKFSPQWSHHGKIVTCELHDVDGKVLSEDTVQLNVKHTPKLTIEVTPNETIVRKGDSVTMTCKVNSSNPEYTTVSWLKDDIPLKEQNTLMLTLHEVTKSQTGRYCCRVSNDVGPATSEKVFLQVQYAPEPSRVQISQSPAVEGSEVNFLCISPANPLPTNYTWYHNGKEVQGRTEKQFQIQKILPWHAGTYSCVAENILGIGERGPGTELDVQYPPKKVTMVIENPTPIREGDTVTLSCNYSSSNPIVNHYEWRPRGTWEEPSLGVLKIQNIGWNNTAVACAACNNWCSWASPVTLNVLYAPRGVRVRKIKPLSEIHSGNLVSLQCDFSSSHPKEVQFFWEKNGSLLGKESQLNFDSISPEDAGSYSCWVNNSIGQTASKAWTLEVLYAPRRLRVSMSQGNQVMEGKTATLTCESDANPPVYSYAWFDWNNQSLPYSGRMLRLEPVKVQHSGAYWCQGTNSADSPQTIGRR

On to `C#CCOCCCCCCO[C@]1(C(=O)O)C[C@H](O)[C@@H](NC(=O)C(C)O)[C@H]([C@H](O)[C@H](O)CNC(=O)Cc2ccc(Cl)cc2)O1` (stereo partly drawn) [Compound 183, (2R,4S,5R,6R)-6-((1R,2R)-3-(2-(4-chlorophenyl)acetamido)-1,2-dihydroxypropyl)-4-hydroxy-5-(2-hydroxypropanamido)-2-((6-(prop-2-yn-1-yloxy)hexyl)oxy)tetrahydro-2H-pyran-2-carboxylic acid], for which the Kd was 1000 to 10000 nM in experiment [1], 1000 to 10000 nM in experiment [2] and under 1000 nM at cynomolgus Siglec-2/CD22.
On to `C#CCOCCCCCCO[C@]1(C(=O)O)C[C@H](O)[C@@H](NC(=O)CN)[C@H]([C@H](O)[C@H](O)CNC(=O)Cc2ccc(Cl)cc2)O1` [Compound 184, (2R,4S,5R,6R)-5-(2-aminoacetamido)-6-((1R,2R)-3-(2-(4-chlorophenyl)acetamido)-1,2-dihydroxypropyl)-4-hydroxy-2-((6-(prop-2-yn-1-yloxy)hexyl)oxy)tetrahydro-2H-pyran-2-carboxylic acid], for which the Kd (in experiment [1]; in experiment [2]; at cynomolgus Siglec-2/CD22) was 1000 to 10000 nM in each case.
Turning to `C#CCOCCCCCCO[C@]1(C(=O)O)C[C@H](O)[C@@H](NC(=O)NCCO)[C@H]([C@H](O)[C@H](O)CNC(=O)Cc2ccc(Cl)cc2)O1` [Compound 185, (2R,4S,5R,6R)-6-((1R,2R)-3-(2-(4-chlorophenyl)acetamido)-1,2-dihydroxypropyl)-4-hydroxy-5-(3-(2-hydroxyethyl)ureido)-2-((6-(prop-2-yn-1-yloxy)hexyl)oxy)tetrahydro-2H-pyran-2-carboxylic acid], the Kd was 1000 to 10000 nM in experiment [1], 1000 to 10000 nM in experiment [2] and under 1000 nM at cynomolgus Siglec-2/CD22.
For the molecule `C#CCOCCCCCCS[C@]1(C(=O)O)C[C@H](O)[C@@H](NC(=O)CO)[C@H]([C@H](O)[C@H](O)CNC(=O)Cc2ccc(Cl)cc2)O1` [Compound 186, (2S,4S,5R,6R)-6-((1R,2R)-3-(2-(4-chlorophenyl)acetamido)-1,2-dihydroxypropyl)-4-hydroxy-5-(2-hydroxyacetamido)-2-((6-(prop-2-yn-1-yloxy)hexyl)thio)tetrahydro-2H-pyran-2-carboxylic acid], the Kd (in experiment [1]; in experiment [2]; on cynomolgus Siglec-2/CD22) was under 1000 nM throughout.
Take `C#CCNC(=O)c1ccc(CS[C@]2(C(=O)O)C[C@H](O)[C@@H](NC(=O)CO)[C@H]([C@H](O)[C@H](O)CNC(=O)Cc3ccc(Cl)cc3)O2)cc1` [Compound 187, (2S,4S,5R,6R)-6-((1R,2R)-3-(2-(4-chlorophenyl)acetamido)-1,2-dihydroxypropyl)-4-hydroxy-5-(2-hydroxyacetamido)-2-((4-(prop-2-yn-1-ylcarbamoyl)benzyl)thio)tetrahydro-2H-pyran-2-carboxylic acid]: the Kd (in experiment [1]; in experiment [2]; at cynomolgus Siglec-2/CD22) was under 1000 nM in each case.
`C#CCOCCCCCCO[C@]1(C(=O)O)C[C@H](O)[C@@H](NC(=O)C(=O)Nc2ccccc2)[C@H]([C@H](O)[C@H](O)CNC(=O)Cc2ccc(Cl)cc2)O1` [Compound 188, (2R,4S,5R,6R)-6-((1R,2R)-3-(2-(4-chlorophenyl)acetamido)-1,2-dihydroxypropyl)-4-hydroxy-5-(2-oxo-2-(phenylamino)acetamido)-2-((6-(prop-2-yn-1-yloxy)hexyl)oxy)tetrahydro-2H-pyran-2-carboxylic acid]: the Kd was 1000 to 10000 nM in experiment [1], under 1000 nM in experiment [2] and under 1000 nM at cynomolgus Siglec-2/CD22.
Regarding `C#CCOCCCCCCO[C@]1(C(=O)O)C[C@H](O)[C@@H](NC(=O)C(=O)NC)[C@H]([C@H](O)[C@H](O)CNC(=O)Cc2ccc(Cl)cc2)O1` [Compound 189, (2R,4S,5R,6R)-6-((1R,2R)-3-(2-(4-chlorophenyl)acetamido)-1,2-dihydroxypropyl)-4-hydroxy-5-(2-(methylamino)-2-oxoacetamido)-2-((6-(prop-2-yn-1-yloxy)hexyl)oxy)tetrahydro-2H-pyran-2-carboxylic acid], the Kd was 1000 to 10000 nM in experiment [1], 1000 to 10000 nM in experiment [2] and under 1000 nM on cynomolgus Siglec-2/CD22.
For `C#CCOCCCCCCO[C@]1(C(=O)O)C[C@H](O)[C@@H](Nc2c(N)c(=O)c2=O)[C@H]([C@H](O)[C@H](O)CNC(=O)Cc2ccc(Cl)cc2)O1` [Compound 190, (2R,4S,5R,6R)-5-((2-amino-3,4-dioxocyclobut-1-en-1-yl)amino)-6-((1R,2R)-3-(2-(4-chlorophenyl)acetamido)-1,2-dihydroxypropyl)-4-hydroxy-2-((6-(prop-2-yn-1-yloxy)hexyl)oxy)tetrahydro-2H-pyran-2-carboxylic acid], the results for the Kd (in experiment [1]; in experiment [2]; on cynomolgus Siglec-2/CD22) were 1000 to 10000 nM, under 1000 nM and under 1000 nM, respectively.
With `C#CCOCCCCCCO[C@]1(C(=O)O)C[C@H](O)[C@@H](NC(=O)COC)[C@H]([C@H](O)[C@H](O)CNC(=O)Cc2ccc(Cl)cc2)O1` [Compound 192, (2R,4S,5R,6R)-6-((1R,2R)-3-(2-(4-chlorophenyl)acetamido)-1,2-dihydroxypropyl)-4-hydroxy-5-(2-methoxyacetamido)-2-((6-(prop-2-yn-1-yloxy)hexyl)oxy)tetrahydro-2H-pyran-2-carboxylic acid], the values for the Kd (in experiment [1]; in experiment [2]; on cynomolgus Siglec-2/CD22) were over 10000 nM, 1000 to 10000 nM and 1000 to 10000 nM, respectively.
On to `C#CCOCCCCCCO[C@]1(C(=O)O)C[C@H](O)[C@@H](NC(=O)NCC(F)(F)F)[C@H]([C@H](O)[C@H](O)CNC(=O)Cc2ccc(Cl)cc2)O1` [Compound 193, (2R,4S,5R,6R)-6-((1R,2R)-3-(2-(4-chlorophenyl)acetamido)-1,2-dihydroxypropyl)-4-hydroxy-2-((6-(prop-2-yn-1-yloxy)hexyl)oxy)-5-(3-(2,2,2-trifluoroethyl)ureido)tetrahydro-2H-pyran-2-carboxylic acid], for which the Kd (in experiment [1]; in experiment [2]; at cynomolgus Siglec-2/CD22) was 1000 to 10000 nM each time.
As for `O=C(Cc1ccc(Cl)cc1)NC[C@@H](O)[C@@H](O)[C@@H]1O[C@@](SCc2ccc(C(=O)O)cc2)(C(=O)O)C[C@H](O)[C@H]1NC(=O)CO` [Compound 195, (2S,4S,5R,6R)-2-((4-carboxybenzyl)thio)-6-((1R,2R)-3-(2-(4-chlorophenyl)acetamido)-1,2-dihydroxypropyl)-4-hydroxy-5-(2-hydroxyacetamido)tetrahydro-2H-pyran-2-carboxylic acid], the Kd (in experiment [1]; in experiment [2]; at cynomolgus Siglec-2/CD22) was under 1000 nM in each case.
Take `C#CCOCCOCCO[C@]1(C(=O)O)C[C@H](O)[C@@H](NC(=O)CO)[C@H]([C@H](O)[C@H](O)CNC(=O)Cc2ccc3[nH]ccc3c2)O1` [Compound 196, (2R,4S,5R,6R)-6-((1R,2R)-3-(2-(1H-indol-5-yl)acetamido)-1,2-dihydroxypropyl)-4-hydroxy-5-(2-hydroxyacetamido)-2-(2-(2-(prop-2-yn-1-yloxy)ethoxy)ethoxy)tetrahydro-2H-pyran-2-carboxylic acid]: the Kd in experiment [1] was 1000 to 10000 nM; in experiment [2] it was under 1000 nM; on cynomolgus Siglec-2/CD22, under 1000 nM.
